One data set concerns many cell types. To be noted: intracellular pH measurements, overnight incubation at 2 mM; cited from earlier work.
The conditions of data set [1]: in aqueous (physiological) buffers; cited from earlier work.
Another data set has as its system hPBMCs. The data set is described as follows: metabolic activity (MA) test, extracellular acidification of PBMCs. In kind it is cell-based, human. The following applies: hPBMCs of cancer patients, increasing PSA concentrations, FIGS. 8A-D. The procedure:
Fresh peripheral blood mononuclear cells (PBMCs) were isolated by Ficoll-Paque (UNI-SEP, Novamed) and gradient centrifugation. The pellet was resuspended in working solution (WS) (PBS with calcium and magnesium) including the fluorescent probe (HPTS) at a final concentration of 5×10^6 cells/ml.
Each well in a black non-binding, low-volume 384 multi-well plate (Greiner Bio-One) was loaded with 10 μl of the PBMCs solution and 10 μl of working solution plus HPTS including one of ten reagents in 8 increasing concentrations. Thus the final concentration of the probe in each well was 1 μM, and the final concentration of the PBMCs was 2.5×10^6 cells/ml in 20 μl physiological working solution containing 10 mM phosphate buffer around pH 7.3. […] The acidification process was monitored each 5 min during 1 hour of incubation at 37° C. by a commercial fluorescence scanner (TECAN Infinite M200). First, the scanner monitored the acidification process without sealing (“OPEN” mode) during 30 min (6 cycles) and then, to avoid ventilation of CO2 and NH3 from each well, the multi-well plate was sealed hermetically (ThermalSeal RT™, EXCEL Scientific, Inc.) (“CLOSE” mode). Next, the acidification process was monitored again during 30 min (6 cycles). In order to increase the signal to noise ratio, the fluorescence intensities at 513 nm were measured sequentially under excitation at 455 nm and 403 nm per well. […]

In the case of `O=S(=O)(O)c1cc(O)c2ccc3c(S(=O)(=O)O)cc(S(=O)(=O)O)c4ccc1c2c34` [HPTS, 8-Hydroxypyrene-1,3,6-trisulfonic acid], the toxicity entry in the data set on many cell types was “low-toxicity”. Besides, the pKa in data set [1] was about 7.3. As for “PSA: normal prostate tissue specific antigen peptide (146-154aa) recognized by cytotoxic T lymphocytes (PALGTTCYA; UniProt P07288 146-154, looked up, fragment)”, the “MA-test profile under stimulation” value with hPBMCs is reported as “marked peaks at optimal concentrations”.

What is called pKa is the pH at which an ionisable group is half protonated.
